Results reported in ChEMBL document CHEMBL1140860, “Synthesis and evaluation of dihydroartemisinin and dihydroartemisitene acetal dimers showing anticancer and antiprotozoal activity” (Bioorg Med Chem, 2009).

Columns and labels:
[1] = Selectivity index, ratio of TC50 for african green monkey (Cercopithecus aethiops) Vero cells to IC50 for chloroquine-resistant Plasmodium falciparum W2; format: toxicity, cell-based
SR = test: Growth inhibition of human SR cells after 48 hrs by sulforhodamine B assay; format: functional
ACHN = test: Growth inhibition of human ACHN cells after 48 hrs by sulforhodamine B assay; format: functional
M14 = test: Growth inhibition of human M14 cells after 48 hrs by sulforhodamine B assay; format: functional; conditions: M14, 48 h
SF-295 = test: Growth inhibition of human SF295 cells after 48 hrs by sulforhodamine B assay; format: functional; conditions: SF-295, 48 h
CCRF-CEM = test: Growth inhibition of human CCRF-CEM cells after 48 hrs by sulforhodamine B assay; format: functional
SK-MEL-5 = test: Growth inhibition of human SK-MEL-5 cells after 48 hrs by sulforhodamine B assay; format: functional; conditions: SK-MEL-5, 48 h
Plasmodium falciparum [2] = test: Antimalarial activity after 72 hrs against chloroquine-resistant Plasmodium falciparum W2 infected erythrocytes by LDH assay; format: functional, organism-based; conditions: W2, 72 h
OVCAR-3 = test: Growth inhibition of human OVCAR-3 cells after 48 hrs by sulforhodamine B assay; format: functional; conditions: OVCAR-3, 48 h
EKVX = test: Growth inhibition of human EKVX cells after 48 hrs by sulforhodamine B assay; format: functional
MCF7 = test: Growth inhibition of human MCF7 cells after 48 hrs by sulforhodamine B assay; format: functional; conditions: MCF7, 48 h
OVCAR-8 = test: Growth inhibition of human OVCAR8 cells after 48 hrs by sulforhodamine B assay; format: functional; conditions: OVCAR-8, 48 h
NCI-H23 = test: Growth inhibition of human NCI-H23 cells after 48 hrs by sulforhodamine B assay; format: functional; conditions: NCI-H23, 48 h
PC-3 = test: Growth inhibition of human PC3 cells after 48 hrs by sulforhodamine B assay; format: functional; conditions: PC-3, 48 h
MOLT-4 = test: Growth inhibition of human MOLT4 cells after 48 hrs by sulforhodamine B assay; format: functional; conditions: MOLT-4, 48 h
SK-MEL-2 = test: Growth inhibition of human SK-MEL-2 cells after 48 hrs by sulforhodamine B assay; format: functional; conditions: SK-MEL-2, 48 h
Malme-3M = test: Growth inhibition of human MALME-3M cells after 48 hrs by sulforhodamine B assay; format: functional
NCI-H322M = test: Growth inhibition of human NCI-H322M cells after 48 hrs by sulforhodamine B assay; format: functional
SF-268 = test: Growth inhibition of human SF268 cells after 48 hrs by sulforhodamine B assay; format: functional; conditions: SF-268, 48 h
NCI/ADR-RES = test: Growth inhibition of human NCI/ADR-RES cells after 48 hrs by sulforhodamine B assay; format: functional
SF-539 = test: Growth inhibition of human SF539 cells after 48 hrs by sulforhodamine B assay; format: functional; conditions: SF-539, 48 h
HT-29 = test: Growth inhibition of human HT-29 cells after 48 hrs by sulforhodamine B assay; format: functional; conditions: HT-29, 48 h
SK-OV-3 = test: Growth inhibition of human SKOV3 cells after 48 hrs by sulforhodamine B assay; format: functional; conditions: SK-OV-3, 48 h
TK-10 = test: Growth inhibition of human TK10 cells after 48 hrs by sulforhodamine B assay; format: functional; conditions: TK-10, 48 h
CAKI-1 = test: Growth inhibition of human Caki1 cells after 48 hrs by sulforhodamine B assay; format: functional; conditions: CAKI-1, 48 h
HOP-92 = test: Growth inhibition of human HOP92 cells after 48 hrs by sulforhodamine B assay; format: functional; conditions: HOP-92, 48 h
SNB-75 = test: Growth inhibition of human SNB75 cells after 48 hrs by sulforhodamine B assay; format: functional; conditions: SNB-75, 48 h
UACC-62 = test: Growth inhibition of human UACC62 cells after 48 hrs by sulforhodamine B assay; format: functional; conditions: UACC-62, 48 h
SK-MEL-28 = test: Growth inhibition of human SK-MEL-28 cells after 48 hrs by sulforhodamine B assay; format: functional; conditions: SK-MEL-28, 48 h
OVCAR-4 = test: Growth inhibition of human OVCAR4 cells after 48 hrs by sulforhodamine B assay; format: functional; conditions: OVCAR-4, 48 h
SW-620 = test: Growth inhibition of human SW620 cells after 48 hrs by sulforhodamine B assay; format: functional; conditions: SW-620, 48 h
KM12 = test: Growth inhibition of human KM12 cells after 48 hrs by sulforhodamine B assay; format: functional; conditions: KM12, 48 h
T47D = test: Growth inhibition of human T47D cells after 48 hrs by sulforhodamine B assay; format: functional
NCI-H460 = test: Growth inhibition of human NCI-H460 cells after 48 hrs by sulforhodamine B assay; format: functional; conditions: NCI-H460, 48 h
RXF 393 = test: Growth inhibition of human RXF393 cells after 48 hrs by sulforhodamine B assay; format: functional; conditions: RXF 393, 48 h
COLO 205 = test: Growth inhibition of human COLO205 cells after 48 hrs by sulforhodamine B assay; format: functional; conditions: COLO 205, 48 h
UACC-257 = test: Growth inhibition of human UACC257 cells after 48 hrs by sulforhodamine B assay; format: functional; conditions: UACC-257, 48 h
LOX IMVI = test: Growth inhibition of human LOXIMVI cells after 48 hrs by sulforhodamine B assay; format: functional
HCC 2998 = test: Growth inhibition of human HCC2998 cells after 48 hrs by sulforhodamine B assay; format: functional; conditions: HCC 2998, 48 h
HOP-62 = test: Growth inhibition of human HOP62 cells after 48 hrs by sulforhodamine B assay; format: functional; conditions: HOP-62, 48 h
U-251 = test: Growth inhibition of human U251 cells after 48 hrs by sulforhodamine B assay; format: functional; conditions: U-251, 48 h
IGROV-1 = test: Growth inhibition of human IGROV1 cells after 48 hrs by sulforhodamine B assay; format: functional; conditions: IGROV-1, 48 h
[3] = Selectivity index, ratio of TC50 for african green monkey (Cercopithecus aethiops) Vero cells to IC50 for chloroquine-sensitive Plasmodium falciparum D6; format: toxicity, cell-based
K562 = test: Growth inhibition of human K562 cells after 48 hrs by sulforhodamine B assay; format: functional; conditions: K562, 48 h
MDA-N = test: Growth inhibition of human MDA-N cells after 48 hrs by sulforhodamine B assay; format: functional
HCT-116 = test: Growth inhibition of human HCT116 cells after 48 hrs by sulforhodamine B assay; format: functional; conditions: HCT-116, 48 h
MDA-MB-231 = test: Growth inhibition of human MDA-MB-231 cells after 48 hrs by sulforhodamine B assay; format: functional; conditions: MDA-MB-231, 48 h
[4] = Cytotoxicity against african green monkey Vero cells after 48 hrs by neutral red assay; format: cell-based; conditions: chlorocebus sabaeus, read-out: TC50
SN12C = test: Growth inhibition of human SN12C cells after 48 hrs by sulforhodamine B assay; format: functional
NCI-H226 = test: Growth inhibition of human NCI-H226 cells after 48 hrs by sulforhodamine B assay; format: functional; conditions: NCI-H226, 48 h
BT-549 = test: Growth inhibition of human BT549 cells after 48 hrs by sulforhodamine B assay; format: functional; conditions: BT-549, 48 h
A549 = test: Growth inhibition of human A549 cells after 48 hrs by sulforhodamine B assay; format: functional; conditions: A549, 48 h
A498 = test: Growth inhibition of human A498 cells after 48 hrs by sulforhodamine B assay; format: functional; conditions: A498, 48 h
DU-145 = test: Growth inhibition of human DU145 cells after 48 hrs by sulforhodamine B assay; format: functional; conditions: DU-145, 48 h
NCI-H522 = test: Growth inhibition of human NCI-H522 cells after 48 hrs by sulforhodamine B assay; format: functional; conditions: NCI-H522, 48 h
786-0 = test: Growth inhibition of human 786-0 cells after 48 hrs by sulforhodamine B assay; format: functional; conditions: 786-0, 48 h
HCT-15 = test: Growth inhibition of human HCT15 cells after 48 hrs by sulforhodamine B assay; format: functional; conditions: HCT-15, 48 h
[5] = Growth inhibition of human Hs 578T cells after 48 hrs by sulforhodamine B assay; format: functional
SNB-19 = test: Growth inhibition of human SNB19 cells after 48 hrs by sulforhodamine B assay; format: functional; conditions: SNB-19, 48 h
[6] = Growth inhibition of human […] cells after 48 hrs by sulforhodamine B assay; format: functional
OVCAR-5 = test: Growth inhibition of human OVCAR5 cells after 48 hrs by sulforhodamine B assay; format: functional; conditions: OVCAR-5, 48 h
Plasmodium falciparum [7] = test: Antimalarial activity after 72 hrs against chloroquine-sensitive Plasmodium falciparum D6 infected in erythrocytes by LDH assay; format: functional, organism-based; conditions: D6, 72 h
MDA-MB-435 = test: Growth inhibition of human MDA-MB-435 cells after 48 hrs by sulforhodamine B assay; format: functional; conditions: MDA-MB-435, 48 h

SMILES: C[C@H]1[C@@H](OCCCO[C@H]2O[C@@H]3O[C@@]4(C)CC[C@H]5[C@H](C)CC[C@@H]([C@H]2C)[C@@]35OO4)O[C@@H]2O[C@@]3(C)CC[C@H]4[C@H](C)CC[C@@H]1[C@@]24OO3
- selectivity ratio [1]: 35
- GI50 (SR): 1.98 µM
- GI50 (ACHN): 1.47 µM
- GI50 (M14): > 100 µM
- GI50 (SF-295): > 100 µM
- GI50 (CCRF-CEM): 1.31 µM
- GI50 (SK-MEL-5): 30.5 µM
- IC50 (Plasmodium falciparum [2]): 8.5 µM
- GI50 (OVCAR-3): > 100 µM
- GI50 (EKVX): 5.49 µM
- GI50 (MCF7): 0.652 µM
- GI50 (OVCAR-8): > 100 µM
- GI50 (NCI-H23): > 100 µM
- GI50 (PC-3): 3.08 µM
- GI50 (MOLT-4): 5.95 µM
- GI50 (SK-MEL-2): > 100 µM
- GI50 (Malme-3M): > 100 µM
- GI50 (NCI-H322M): > 100 µM
- GI50 (SF-268): > 100 µM
- GI50 (NCI/ADR-RES): 3.64 µM
- GI50 (SF-539): > 100 µM
- GI50 (HT-29): 0.522 µM
- GI50 (SK-OV-3): > 100 µM
- GI50 (TK-10): 2.41 µM
- GI50 (CAKI-1): 6.95 µM
- GI50 (HOP-92): > 100 µM
- GI50 (SNB-75): > 100 µM
- GI50 (UACC-62): 17.9 µM
- GI50 (SK-MEL-28): > 100 µM
- GI50 (OVCAR-4): > 100 µM
- GI50 (SW-620): 0.522 µM
- GI50 (KM12): 0.517 µM
- GI50 (T47D): 0.497 µM
- GI50 (NCI-H460): 31.2 µM
- GI50 (RXF 393): 8 µM
- GI50 (COLO 205): 0.45 µM
- GI50 (UACC-257): > 100 µM
- GI50 (LOX IMVI): > 100 µM
- GI50 (HCC 2998): 9.65 µM
- GI50 (HOP-62): > 100 µM
- GI50 (U-251): > 100 µM
- GI50 (IGROV-1): 7.68 µM
- selectivity ratio [3]: > 21
- GI50 (K562): > 100 µM
- GI50 (MDA-N): 1.58 µM
- GI50 (HCT-116): 0.545 µM
- GI50 (MDA-MB-231): 7.34 µM
- CC50 at 48 h [4]: 296 µM
- GI50 (SN12C): 4.03 µM
- GI50 (NCI-H226): > 100 µM
- GI50 (BT-549): 2.79 µM
- GI50 (A549): 28.7 µM
- GI50 (A498): 14.7 µM
- GI50 (DU-145): 100 µM
- GI50 (NCI-H522): 7.13 µM
- GI50 (786-0): 1.41 µM
- GI50 (HCT-15): 0.403 µM
- GI50 [5]: 0.62 µM
- GI50 (SNB-19): > 100 µM
- GI50 [6]: 4.45 µM
- GI50 (OVCAR-5): > 100 µM
- IC50 (Plasmodium falciparum [7]): 14 µM
- GI50 (MDA-MB-435): 0.694 µM
